Patent US8030042B2, “Polyamino acid synthetase and gene encoding the same” (JNC Corporation, priority 2007, dated 2011)
≈ marks a conversion by molar mass, not a printed value.

B1: ε-poly-L-lysine biosynthetic enzyme: membrane-bound ε-poly-L-lysine biosynthetic enzyme (NRPS) from Streptomyces albulus strain IFO14147, amino acid sequence SEQ ID NO: 2 (protein, listed as Streptomyces albulus)
chain: MSSPLLESSFEPSEPAPQQALYRTAGNPAPRTLLDVLDATAAAHPQAIALDTGSEALTYRDLCIEIERRARQLRDRGIGPGDRVGVRVPSGTAELYLSILAVLRSGAAYVPVDADDPDERAATVFREAAVCAVLGPDGPLPGPARPLGDPRSAGPQDDAWIIFTSGSTGAPKGVAVSHRSAAAFVDAEADLFCQDQPLGPGDRVLAGLSVAFDASCEEMWLAWRYGACLVPAPRALVRAGHELGPWLVERGITVVSTVPTLAALWPDEAMRRVRLLIVGGESCPAGLVDRFAGPGREMWNTYGPTETTVVACAARLLPGEPVRIGLPLKGWQLAVVDRTGQPVPFGAEGELLISGVGTARYLDPAKDAERFRPDDALGAARVYRTGDLVRAEPEGLLFVGRADDQIKLGGRRIELGEIDAALAALPGVRGAAAAVQTTPAGTQVLVGYVVPEQRTADGSSFQQDKARALLQERLPAQLVPVLAEVESLPTRTSGKVDRKALPWPLPSAPVDSATGDPATALDGTAARLAGIWEELLGVRPGPDSDFVSLGGTSLVAARMASQLRIHHPGVSVADLYRHPVLRDMAEHLDSLGGPVDEVRPVRPVPRRTGFVQLLVQTGLYGIAGLRGLVGLALADNVLGLLAPQVWAPHTAWWLIIVGWVVLYSAPMRCALGALAARALAGTIKPGAYPRGGATHLRLWTAERVVAAFGVPSLLGTPWTRLYARSLGCATGRNVALHTMPPVTGLAELGDGCSVEPEADISGWWLDGDTLHIGAVRIGAGARVAHRSMLMPGAVVGQGAELASGACLDGEIPDGASWSGSPARPAGAAERMAGAAWPAPAWQRSRRWSAAYGLTLLGLSLLALLSTAPALVGAYFLLRDSGTLATAGLRLLLAVPVFTLLTTGCSLLVTAAVVRLLGRGITPGLHPASGGVAWRAWLVTRLLDGARGSLFPLYASLGTPHWLRLLGAKVGRHAEISTVLPLPSLLHVEDGAFLADDTLVAPFELRGGWLRLGTVRIGRRAFVGNSGIVDPGHDVPDHSLVGVLSNAPADGEPGSSWLGRPAMPLPRVATQADPARTFAPPRRLVRARAAVELCRVLPLMCGLALAEGVFLTEQDAFAQGGLGLAALVGAPLLLASGLVALLVTTLAKWLLVGRFTVSEHPLWSSFVWRNELYDTFVESLAVPSMAGAFTGTPVLNWWLRTLGAKIGRGVWLESYWLPETDLITVADGVSVNRGCVLQTHLFHDRIMRLDTVRLAEGSSLGPHGIVLPGTEVGARASIAPSSLVMRGESVPAHTRWAGNPIAGERPARPVPARAEGGAAA

System: ε-poly-L-lysine biosynthetic enzyme
Experiment: adenylation activity of L-lysine and other amino acids by ATP-PPi exchange reaction
Type: biochemical, Streptomyces albulus strain IFO14147
Settings: 1 mM amino acid; "None" = was not adenylated
Procedure: The adenylation activity of L-lysine and other amino acids was measured by ATP-PPi exchange reaction. A reaction solution (40 μl), which includes: 1 mM L-lysine or another amino acid; 5 mM MgCl2; 5 mM. ATP; 1 mM DTT; 20% (w/v) glycerol; 0.2% (w/v) NP-40; 0.2 mM sodium diphosphate; 51.8 kBq/ml [32P] sodium diphosphate; 100 mM TAPS-NaOH buffer solution (pH 8.5); and the enzyme, was incubated at 30° C. 1.0 ml of a solution containing 1.2% (w/v) active carbon, 0.1 M sodium diphosphate and 0.35 M perchloric acid was added thereto to terminate the reaction. After the active carbon was washed with pure water, the amount of radioactivity bound to the active carbon was measured using a liquid scintillation counter (Aloka).

Molecule	Substrate specificity: adenylated by the enzyme or not
C[C@H](N)C(=O)O [L-Ala]	None
N[C@@H](CCC(=O)O)C(=O)O [L-Glu]	None
N[C@@H](Cc1c[nH]c2ccccc12)C(=O)O [L-Trp]	None
N[C@@H](Cc1c[nH]cn1)C(=O)O [L-His]	None
NCC(O)CCC(N)C(=O)O (racemic) [DL-5-hydroxylysine]	adenylated
NC(=O)C[C@H](N)C(=O)O [L-Asn]	None
NCCSC[C@H](N)C(=O)O [S-(2-aminoethyl)-L-cysteine]	adenylated
NCC(=O)O [Gly]	None
CC(C)[C@H](N)C(=O)O [L-Val]	None
C[C@@H](O)[C@H](N)C(=O)O [L-Thr, L-threonine]	None
CSCC[C@H](N)C(=O)O [L-Met]	None
N[C@@H](CS)C(=O)O [L-Cys]	None
N[C@@H](CO)C(=O)O [L-Ser]	None
N=C(N)NCCC[C@H](N)C(=O)O [L-Arg]	None
CC[C@H](C)[C@H](N)C(=O)O [L-Ile]	None
NC(=O)CC[C@H](N)C(=O)O [L-Gln]	None
N[C@@H](Cc1ccc(O)cc1)C(=O)O [L-Tyr]	None
N[C@@H](Cc1ccccc1)C(=O)O [L-Phe]	None
NCCCC[C@@H](N)C(=O)O [D-lysine]	adenylated
O=C(O)[C@@H]1CCCN1 [L-Pro]	None
CC(C)C[C@H](N)C(=O)O [L-Leu]	None
N[C@@H](CC(=O)O)C(=O)O [L-Asp]	None
NCCOC[C@H](N)C(=O)O [O-(2-aminoethyl)-L-serine]	adenylated

Same assay, conditions: activity to L-lysine regarded as 100%; FIG. 8

Molecule	Relative activity in amino acid activation (adenylation) reaction [%]
NCCCC[C@H](N)C(=O)O [L-lysine]	100

System: Streptomyces albulus
Experiment: minimum growth inhibitory concentration against the bacterium in a M9 minimum medium
Type: cell-based
Settings: i.e. minimum concentration to inhibit aspartokinase

Molecule	MIC [mM]
NCCSC[C@H](N)C(=O)O [S-(2-aminoethyl)-L-cysteine]	8 (≈ 1310 µg/mL)
C[C@@H](O)[C@H](N)C(=O)O [L-Thr, L-threonine]	16 (≈ 1910 µg/mL)

System: Streptomyces albulus
Experiment: Microbial production of heteropolyamino acid by viable bacterium (LC-MS)
Type: cell-based
Settings: 8 mM analog, 16 mM L-threonine, L-lysine; pH 4.2, 30° C., 48 hours; FIG. 10
Procedure: A bacterium of Streptomyces albulus, which was obtained by culturing in a M3G medium (Example 1) at 30° C. for 36 hours, was washed with 100 mM citrate buffer solution (pH 4.2) twice. The washed bacterium obtained from 100 ml of culture solution was suspended in a reaction solution for bacterium consisting of 50 ml of 5% glucose, 1% ammonium sulfate, 8 mM S-(2-aminoethyl)-L-cysteine, 16 mM L-threonine (the concentration of each of the amino acids corresponds to a minimum growth inhibitory concentration against the bacterium in a M9 minimum medium, i.e., a minimum concentration to inhibit aspartokinase which is the key enzyme for L-lysine biosynthesis), and 100 mM citrate buffer solution (pH 4.2) containing a given amount of L-lysine, and it was subjected to shaking culture at 30° C. for 48 hours. After the completion of culture, polyamino acid contained in the culture supernatant collected by centrifugation was subjected to LC-MS analysis using the method of Example 1 (paragraph [0091]).

Molecule	Analog taken into the polylysine molecule by viable bacterium (heteropolyamino acid)
NCCSC[C@H](N)C(=O)O [S-(2-aminoethyl)-L-cysteine]	taken into the polylysine molecule

System: ε-poly-L-lysine biosynthetic enzyme
Experiment: ε-poly-L-lysine biosynthesis activity (L-[U-14C]lysine taken into ε-poly-L-lysine)
Type: biochemical, Streptomyces albulus strain IFO14147
Settings: 5 mM Mg^2+, 5 mM Mn^2+; no concentration given for Ca^2+
Procedure: The measurement of the ε-poly-L-lysine biosynthesis activity was performed according to the method of Kawai et al. (Biochem Biophys Res Commun. 2003 Nov. 21; 311 (3): 635-40) with some modification. A reaction solution (40 μl), which includes: 1 mM L-lysine containing 92.5 kBq/ml L-[U-14C]lysine (Amersham Biosciences); 5 mM MgCl2; 5 mM ATP; 1 mM DTT; 20% (w/v) glycerol; 0.2% (w/v) NP-40; 100 mM TAPS-NaOH buffer solution (pH 8.5); and the enzyme, was incubated at 30° C. 10 μl of the reaction solution was spotted on a glass fiber filter paper having the diameter of 2.1 cm (Whatman), and it was immediately immersed in an ice-cold sodium solution of 5% (w/v) trichloroacetic acid-0.25% (w/v) tungstic acid. It was allowed to stand for 20 minutes and thereafter mildly shaken for 5 minutes. After the filter was shaken again in the same solution for 5 minutes, it was rinsed with ethanol and then dried. The amount of radioactivity bound to the filter was measured using a liquid scintillation counter (Aloka). The amount of enzyme by which 1 pmol/second of L-lysine is taken into ε-poly-L-lysine under the above-described reaction conditions was defined as 1 unit. Specific activity of a protein is represented by unit per 1 mg of the protein. Quantitation of protein was performed using the Bradford method. A calibration curve was made using bovine serum albumin (Wako Pure Chemical Industries, Ltd.).

Molecule	Metal ion requirement: enzyme activity on addition of divalent cation
[Ca+2] [Ca^2+]	activated slightly
[Mn+2] [Mn^2+]	maximal activity
[Mg+2] [Mg^2+]	maximal activity

Same assay, conditions: purified enzyme preparation

Molecule	Optimum pH of synthesis reaction
B1	8.5

System: ε-poly-L-lysine biosynthetic enzyme
Experiment: Enzymatic production of heteropolyamino acid from lysine analog and L-lysine (ESI-LC-MS)
Type: biochemical, Streptomyces albulus strain IFO14147
Settings: 2 mM substrate, L-lysine and analog mixed; 25° C., 4 hours; FIG. 9
Procedure: A reaction solution (200 μl) containing 2 mM substrate amino acid (L-lysine and analog were mixed in a given ratio), 5 mM MgCl2, 5 mM ATP, 1 mM DTT, 20% glycerol, 0.2% (w/v) NP-40, 100 mM TAPS-NaOH buffer solution (pH 8.5) and about 10 μg of the purified enzyme preparation was put into a 1.5 ml microtube, and it was incubated at 25° C. 4 hours later, polyamino acid produced in a manner similar to that in Example 1 was subjected to ESI-LC-MS analysis.

Molecule	Analog taken into the polylysine molecule by the enzyme (heteropolyamino acid)
NCC(O)CCC(N)C(=O)O (racemic) [DL-5-hydroxylysine]	taken into the polylysine molecule
NCCSC[C@H](N)C(=O)O [S-(2-aminoethyl)-L-cysteine]	taken into the polylysine molecule
NCCOC[C@H](N)C(=O)O [O-(2-aminoethyl)-L-serine]	taken into the polylysine molecule

System: ε-poly-L-lysine biosynthetic enzyme
Experiment: adenylation activity of L-lysine and other amino acids by ATP-PPi exchange reaction
Type: biochemical, Streptomyces albulus strain IFO14147
Settings: nucleotide in place of ATP

Molecule	Nucleotide specificity: activation of substrate amino acids
Nc1ncnc2c1ncn2[C@@H]1O[C@H](COP(=O)(O)OP(=O)(O)OP(=O)(O)O)[C@@H](O)[C@H]1O [ATP]	ATP-specific
O=c1ccn([C@@H]2O[C@H](COP(=O)(O)OP(=O)(O)OP(=O)(O)O)[C@@H](O)[C@H]2O)c(=O)[nH]1 [UTP]	not activated
Nc1ccn([C@@H]2O[C@H](COP(=O)(O)OP(=O)(O)OP(=O)(O)O)[C@@H](O)[C@H]2O)c(=O)n1 [CTP]	not activated
Nc1nc2c(ncn2[C@@H]2O[C@H](COP(=O)(O)OP(=O)(O)OP(=O)(O)O)[C@@H](O)[C@H]2O)c(=O)[nH]1 [GTP]	not activated
